Target: T1, 5-HT1A receptor (Rattus norvegicus, UniProt P19327)
T1 construct: rat hippocampal membrane homogenate; from tissue; host or cells: rat hippocampus, membrane homogenate
T1 sequence (P19327 1-422): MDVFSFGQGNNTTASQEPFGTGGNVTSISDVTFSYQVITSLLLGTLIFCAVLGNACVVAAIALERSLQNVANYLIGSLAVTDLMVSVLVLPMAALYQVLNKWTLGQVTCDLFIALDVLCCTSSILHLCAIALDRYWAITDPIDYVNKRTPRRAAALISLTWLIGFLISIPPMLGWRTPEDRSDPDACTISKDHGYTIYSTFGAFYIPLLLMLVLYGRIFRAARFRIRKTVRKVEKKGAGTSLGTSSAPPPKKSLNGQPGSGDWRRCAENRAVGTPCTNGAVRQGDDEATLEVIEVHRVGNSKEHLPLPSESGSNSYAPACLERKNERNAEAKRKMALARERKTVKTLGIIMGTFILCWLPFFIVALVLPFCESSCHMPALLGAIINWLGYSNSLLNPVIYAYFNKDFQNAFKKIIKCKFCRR
Experiment: 5-HT1A receptor binding activity in rat hippocampal membrane homogenate (method of B. S. Alexander and M. D. Wood)
Protocol: The compounds of the invention are tested for 5-HT1A receptor binding activity in rat hippocampal membrane homogenate by the method of B. S. Alexander and M. D. Wood, J. Pharm. Pharmacol., 1988, 40, 888-891.

Compound	IC50 [nM]
COc1ccccc1N1CCN(CCC(C(=O)N2C3CCCC2CC3)c2ccccc2)CC1 (centres unmarked) [Example 1, 1-(8-Aza-bicyclo[3.2.1]oct-8-yl)-4-[4-(2-methoxy-phenyl)-piperazin-1-yl]-2-phenyl-butan-1-one]	3.3
COc1ccc(F)cc1N1CCN(CCC(C(=O)N2C3CCCC2CC3)c2ccccc2)CC1 (centres unmarked) [Example 2, 1-(8-Aza-bicyclo[3.2.1]oct-8-yl)-4-[4-(5-fluoro-2-methoxy-phenyl)-piperazin-1-yl]-2-phenyl-butan-1-one]	1.48
O=C(C(CCN1CCN(c2cccc3[nH]ccc23)CC1)c1ccccc1)N1C2CCCC1CC2 (centres unmarked) [Example 5, 1-(8-Aza-bicyclo[3.2.1]oct-8-yl)-4-[4-(1H-indol-4-yl)-piperazin-1-yl]-2-phenyl-butan-1-one]	3.73
O=C(C(CCN1CCN(c2ccccn2)CC1)c1ccccc1)N1C2CCCC1CC2 (centres unmarked) [Example 8, 1-(8-Aza-bicyclo[3.2.1]oct-8-yl)-2-phenyl-4-[4-(pyridin-2-yl)-piperazin-1-yl]-butan-1-one]	3.5
O=C(C(CCN1CCN(c2ncccc2C(F)(F)F)CC1)c1ccccc1)N1C2CCCC1CC2 (centres unmarked) [Example 10]	17.9
O=C(C(CCN1CCN(c2cccc3[nH]ccc23)CC1)c1ccccc1)N1CC2CCC(CC2)C1 (centres unmarked) [Example 14, 1-(3-Aza-bicyclo[3.2.2]non-3-yl)-4-[4-(1H-indol-4-yl)-piperazin-1-yl]-2-phenylbutan-1-one]	1.96
COc1ccccc1N1CCN(CCC(C(=O)N2CC3CCC(CC3)C2)c2ccccc2)CC1 (centres unmarked) [Example 15]	0.58
COc1ccccc1N1CCN(CCC(C(=O)N2CC3CC=CCC3C2)c2ccccc2)CC1 (centres unmarked) [Example 16, 1-(1,3,3a,4,7,7a-Hexahydroisoindol-2-yl)-4-[4-(2-methoxyphenyl)piperazin-1-yl]-2-phenylbutan-1-one]	4.46
